The text below walks through data of publication PMC7532674, “Synthesis and preliminary studies of ^11C-labeled tetrahydro-1,7-naphthyridine-2-carboxamides for PET imaging of metabotropic glutamate receptor 2” (Theranostics, 2020).

A value given as a limit tells only on which side of the number the result lay.

Series [1] has as its target T1, mGlu2 (Rattus norvegicus, UniProt P31421). Nature of the series: Dynamic PET imaging in rat brain. Type of series: in vivo, SD rats. Further details: from tissue; host or cells: brain of living SD rats. To be noted: for Time of peak radioactivity in brain regions: i.v. The protocol:
As we previously reported, PET scans were carried out by an Inveon PET scanner (Siemens Medical Solutions, Knoxville, TN, USA). During the scan, SD rats were anesthetized by oxygen mixed with 1-2% (v/v) isoflurane and kept body temperature at […] by a commercially available circulation system (T/Pump TP401, Gaymar Industries, Orchard Park, NY). A 24-gauge catheter was inserted into the tail vein to facilitate a bolus injection. The radiotracer [^11C]14a or [^11C]14b (ca. 1 mCi / 150-200 μL) was injected into the rat via the preinstalled catheter, and the dynamic acquisition of PET signals in rat brain was started at the same time and lasted for 60 min in 3D list mode. For pretreatment studies, 14a (1 mg/kg for [^11C]14a for self-blocking study in Figure S2; 3 mg/kg for [^11C]14b for blocking study in Figure S12C) or 14b (1 mg/kg for [^11C]14b for self-blocking study in Figure S12B), formulated in 300 μL of saline containing 10% ethanol and 5% Tween 80, was injected at 30 min via the tail vein catheter prior to the injection of [^11C]14a or [^11C]14b. The dynamic emission data were reconstructed by filtered back projection using Hanning's filter with a Nyquist cutoff of 0.5 cycle/pixel into 33 frames (10 s × twelve frames, 20 s × three frames, 30 s × three frames, 60 s × three frames, 150 s × three frames, and 300 s × nine frames). The TACs of [^11C]14a or [^11C]14b were analyzed from volumes of interest in the striatum, hippocampus, cortex, thalamus, pons and cerebellum normalized to a rat brain MRI template using PMOD software (version 3.4; PMOD technology, Zurich, Switzerland). The radioactivity was decay-corrected to the injection time and expressed as the standardized uptake value (SUV) which equals to (radioactivity per milliliter of tissue per injected radioactivity) × (gram of body weight). To obtain non-displaceable binding potential (BPND), simplified reference tissue model (SRTM), [54] was carried out on the basis of kinetic analysis using PMOD software. We acquired BP-parametric images using kinetic modeling without masking. Respective TACs in receptor-rich or -poor region were loaded for production of BP-map with default setting. Representative parametric images scaled with BPND were reconstructed by PMOD software using TACs in mGlu2-enriched and reference regions. Pons was selected as the reference region for mGlu2 (the lowest and consistent brain uptake and washout kinetics between baseline and blocking conditions). It should be noted that while there is a low-level expression of mGlu2 in the pons, it is not without existence. A reference region should be a region devoid of the target, but with similar tracer transport or diffusion to the other regions of interest with expression of the target. Therefore, there are some limitations when using pons as the reference region. For example, the partial volume effect in PET likely leads to spillover of activity from nearby higher uptake regions into the pons, artificially increasing the time-activity curve in the pons.

Series [2] concerns the target T1, mGlu2. The series can be described thus: In vitro autoradiography in rat brain sections. As to conditions: for Decrease of region-to-pons ratios under blocking: preincubated with unlabeled QCA, 14b or 14a at 10 µM. Type of series: binding. Further details: from tissue; host or cells: Sprague-Dawley rat brain sections. The protocol:
Sagittal rat brain slices were prepared into 20 μm sections with a cryostat (HM560; Carl Zeiss, Oberkochen, Germany), mounted on air plasma spray-coated glass slides, and stored at -80 °C before used for experiments. The sections were preincubated for 15 min in a glass tank containing 200 mL of Tris·HCl buffer (50 mM, pH 7.4) consisting of 2 mM of MgCl2 and 1.2 mM of CaCl2 at room temperature. After preincubation, the sections were incubated in a fresh buffer containing [^11C]14a or [^11C]14b (250 µCi in 200 mL buffer; molar activity 2.7 Ci/µmol of [^11C]14a and 2.5 Ci/µmol of [^11C]14b, respectively) in the glass tank for 30 min at room temperature. For blocking studies, non-radioactive 14a or 14b (10 μM) and QCA (10 μM) were chosen to determine the specificity of radiotracers for binding mGlu2. Six serial brain sections were used for each conditions. After incubation, brain sections were washed with cold buffer (3 × 5 min), immersed in cold distilled water, and then dried with cold air. The sections were placed in contact with imaging plates (BAS-MS2025, FUJIFILM, Tokyo, Japan). Autoradiograms were obtained and photostimulated luminescence (PSL) values in the ROIs were measured using a Bio-Imaging Analyzer System (BAS5000, FUJIFILM).

For series [3], the system named is mGlu2. To be noted: cited from earlier work.
The nature of series [4]: Radiometabolite analysis in plasma and brain. The format is in vivo, Sprague-Dawley rats. To be noted: SD rats. As for the experimental part:
Sprague-Dawley rats were sacrificed by decapitation under anesthesia at 5 and 20 min (n = 2 each time point) after the intravenous injection of [^11C]14b. Blood and whole brain samples were quickly harvested. Plasma was separated from the blood samples via 1) centrifuging at 15,000 g for 2 min at 4 °C, 2) mixing 0.5 mL of acetonitrile with 0.5 mL of supernatant, and then 3) vortexing for 15 s and centrifuging again at 15,000 g for 2 min for deproteinization. In terms of brain metabolite analysis, the removed rat brain was quickly placed on the ice, homogenized in an ice-cooled CH3CN/H2O (v/v, 1/1, 1 mL) solution, and then centrifuged at 15,000 g for 2 min at 4 °C. The supernatant was collected, whose radioactivity was >90% based on the total radioactivity in the brain homogenate. An aliquot of the supernatant (100 μL) obtained from the plasma or brain homogenate was injected into the radio-HPLC system and analyzed using a Capcell Pak UG80 C18 column (4.6 mm ID × 250 mm) in a mobile phase of CH3CN/H2O + 0.1% Et3N (v/v, 45/55) at a flow rate of 1.0 mL/min. The percentage of [^11C]14b to total radioactivity (corrected for decay) on the HPLC charts was calculated as ([peak area for [^11C]14b]/[total peak area]) × 100.

A short description of series [5]: Whole body ex vivo biodistribution in mice. The protocol:
Each mouse was treated with a bolus injection of [^11C]14b (50 μCi / 150 μL) via the tail vein. Three mice were sacrificed by cervical dislocation at each time point (1, 5, 15, 30 and 60 min) after injection. Major organs, including heart, lungs, liver, pancreas, spleen, kidneys, stomach (including contents), small intestine (including contents), large intestine (including contents), testes, muscle, whole brain and blood samples were quickly removed and weighed. The radioactivity remained in these organs was measured by a 2480 Wizard autogamma counter (PerkinElmer, USA). The results are expressed as the percentage of injected dose per gram of wet tissue (%ID/g) or standardized uptake value (SUV). All radioactivity measurements were decay-corrected to the time point of PET tracer injection based on half-life of ^11C.

The conditions of series [6]: cited from earlier work.
Setting [7] is: SRTM, pons as reference, baseline.

T1 sequence (P31421 19-872): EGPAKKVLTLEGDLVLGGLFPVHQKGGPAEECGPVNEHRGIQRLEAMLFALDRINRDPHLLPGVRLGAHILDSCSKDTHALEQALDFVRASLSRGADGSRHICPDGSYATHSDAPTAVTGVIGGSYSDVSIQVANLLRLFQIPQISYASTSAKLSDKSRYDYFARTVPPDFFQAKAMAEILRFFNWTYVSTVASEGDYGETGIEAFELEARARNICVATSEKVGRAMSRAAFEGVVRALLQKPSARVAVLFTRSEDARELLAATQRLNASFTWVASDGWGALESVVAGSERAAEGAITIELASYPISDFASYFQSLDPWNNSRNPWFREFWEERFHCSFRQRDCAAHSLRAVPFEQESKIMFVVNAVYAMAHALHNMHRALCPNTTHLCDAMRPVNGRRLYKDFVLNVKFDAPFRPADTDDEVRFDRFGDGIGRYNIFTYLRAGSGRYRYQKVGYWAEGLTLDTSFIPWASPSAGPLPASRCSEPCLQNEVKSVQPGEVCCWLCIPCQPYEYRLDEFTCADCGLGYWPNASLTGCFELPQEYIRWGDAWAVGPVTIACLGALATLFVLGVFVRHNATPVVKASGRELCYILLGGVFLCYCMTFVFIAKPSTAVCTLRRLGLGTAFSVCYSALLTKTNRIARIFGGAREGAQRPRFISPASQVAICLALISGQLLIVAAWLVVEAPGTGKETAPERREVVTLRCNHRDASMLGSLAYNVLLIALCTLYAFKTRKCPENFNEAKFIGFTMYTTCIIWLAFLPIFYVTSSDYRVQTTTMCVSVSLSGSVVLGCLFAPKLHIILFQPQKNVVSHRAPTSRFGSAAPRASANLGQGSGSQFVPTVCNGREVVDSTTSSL

Take `COc1cc(CN2CCc3c(-c4ccc(O[11CH3])cc4F)cc(C(N)=O)nc3C2)ccn1` [[^11C]14a, 4-(2-fluoro-4-(methoxy-^11C)phenyl)-7-((2-methoxy-pyridin-4-yl)methyl)-5,6,7,8-tetrahydro-1,7-naphthyridine-2-carboxamide]: in series [1] (SD rats, at 2.5 min), the “Peak uptake in the striatum” value is given as 1.7 SUV. The “Time of peak radioactivity in brain regions” value in series [1] (SD rats) was 2.5 min. Besides, the In vivo specificity entry in series [1] (pretreatment with 14a (1 mg/kg)) was “low-to-modest”. Also, in series [2], the “Decrease of region-to-pons ratios under blocking” value is 17-54%.
As for `[11CH3]Oc1c(F)ccc(F)c1C1CCN(c2ccn3c(CC4CC4)nnc3c2Cl)CC1` [[^11C]JNJ42491293], the IC50 (as a rule, the concentration that inhibits the measured activity by half) in series [3] was 0.0075 µM.
Regarding `[11CH3]Oc1ccc(C2CCN(c3ccn(CC4CC4)c(=O)c3C#N)CC2)cc1` [[^11C]CMDC, 1-(cyclopropylmethyl)-4-(4-[^11C]methoxyphenyl)-piperidin-1-yl-2-oxo-1,2-dihydropyridine-3-carbonitrile], in series [3], the IC50 is 0.098 µM.
Consider `[11CH3]Oc1cc(CN2CCc3c(-c4ccc(F)cc4F)cc(C(N)=O)nc3C2)ccn1` [[^11C]14b, 4-(2,4-difluorophenyl)-7-((2-(methoxy-^11C)pyridine-4-yl)methyl)-5,6,7,8-tetrahydro-1,7-naphthyridine-2-carboxamide], for which the “Time of peak radioactivity in brain regions” value in series [1] (SD rats) is no more than 3 min. In series [1] (setting [7]), the BPND in cerebellum stood at 0.12; the “BPND in striatum and cingulate cortex” value is 0.72. Further, the “Reduction of BPND” value in series [1] (pretreatment with 14a, 3 mg/kg i.v. 30 min before) is reported as 48-90%. Also, the “Reduction of BPND” value in series [1] (pretreatment with 14b, 1 mg/kg i.v. 30 min before) was 41-88%. Further, the “Unchanged fraction in plasma” value in series [4] (5 min post injection) was 77%. Further, in series [4] (20 min post injection), the “Unchanged fraction in brain” value was greater than 99% and the “Unchanged fraction in plasma” value was found to be 21%. Further, the “Ratio of %ID/g(1min/60min) in blood” value in series [5] is greater than 3.5. For the same molecule, the Brain uptake result in series [5] (5 min post injection) is given as “ca. 3.6 %ID/g”. For the same molecule, in series [5] (within initial 1 min), the “Radioactivity in heart, lungs, liver, pancreas, kidneys and small intestine” value is recorded as greater than 4 %ID/g. Moreover, in series [2] (autoradiography, baseline), the “Ratio of cerebellum to pons” value was determined as 1.78, the “Ratio of cerebral cortex to pons” value amounted to 2.61, the “Ratio of hippocampus to pons” value stood at 2.00 and the “Ratio of striatum to pons” value is 2.79. Further, in series [2], the “Decrease of region-to-pons ratios under blocking” value is reported as 45-69%.
On to `[11CH3]Oc1cccc(CC[C@@](N)(C(=O)O)[C@H]2C[C@@H]2C(=O)O)c1` [[^11C]CMG], for which, in series [3], the IC50 is 0.094 µM.
Consider `[11CH3]Oc1ccc(-c2cc(C(N)=O)nc3cc(CN4C(=O)CCC4=O)ccc23)c(F)c1` [[^11C]QCA, 7-((2,5-Dioxopyrrolidin-1-yl)methyl)-4-(2-fluoro-4-[^11C]methoxyphenyl) quinoline-2-carboxamide], for which, in series [6], the “Brain uptake, peak value” is given as ~ 0.3 SUV. The IC50 in series [3] was 0.045 µM.
